US5767291A, “Phenyl heterocycles as cox-2 inhibitors” (Merck Frosst Canada, Inc., priority 1996, dated 1998)

Tests used:
cyclooxygenase-1 (COX-1) [1] = target: T1, cyclooxygenase-1 (COX-1) (Homo sapiens, UniProt P23219); test: Microsomal cyclooxygenase assay, COX-1 (PGE2 synthesis, microsomes of human U-937 cells); assay type: biochemical; conditions: read-out: Microsomes COX-1 % inhib.; for inhibition at 0.01 µM: 10 nM; for inhibition at 0.1 µM: 100 nM; for inhibition at 1 µM: 1000 nM
T1 construct: human U-937 cells (which specifically express cyclooxygenase-1); endogenous in cells; host or cells: human U-937 cells (whole cells, and microsomes prepared from them)
T1 sequence (P23219 24-599): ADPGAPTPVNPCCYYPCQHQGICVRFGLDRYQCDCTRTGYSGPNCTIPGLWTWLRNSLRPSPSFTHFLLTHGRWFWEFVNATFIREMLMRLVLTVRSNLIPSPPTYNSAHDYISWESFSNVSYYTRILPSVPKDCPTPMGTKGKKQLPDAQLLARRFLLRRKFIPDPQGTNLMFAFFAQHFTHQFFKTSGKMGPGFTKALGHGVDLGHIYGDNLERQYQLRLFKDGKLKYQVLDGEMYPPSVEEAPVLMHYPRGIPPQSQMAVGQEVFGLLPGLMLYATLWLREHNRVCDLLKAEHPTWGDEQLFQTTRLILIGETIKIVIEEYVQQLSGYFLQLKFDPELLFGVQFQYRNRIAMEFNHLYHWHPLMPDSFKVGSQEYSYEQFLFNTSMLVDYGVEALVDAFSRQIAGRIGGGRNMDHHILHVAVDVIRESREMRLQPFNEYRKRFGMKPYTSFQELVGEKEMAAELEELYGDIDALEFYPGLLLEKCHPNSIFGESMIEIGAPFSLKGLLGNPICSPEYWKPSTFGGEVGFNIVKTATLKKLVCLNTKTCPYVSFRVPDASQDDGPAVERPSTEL
Method: (§1) Compounds were tested as inhibitors of cyclooxygenase activity in whole cell and microsomal cyclooxygenase assays. Both of these assays measured prostaglandin E2 (PGE2) synthesis in response to arachidonic acid, using a radioimmunoassay. Cells used for whole cell assays, and from which microsomes were prepared for microsomal assays, were human osteosarcoma 143 cells (which specifically express cyclooxygenase-2) and human U-937 cells (which specifically express cyclooxygenase-1). In these assays, 100% activity is defined as the difference between prostaglandin E2 synthesis in the absence and presence of arachidonate addition.

cyclooxygenase-2 (COX-2) [2] = target: T2, cyclooxygenase-2 (COX-2) (Homo sapiens, UniProt P35354); test: Whole cell cyclooxygenase assay, COX-2 (PGE2 synthesis in response to arachidonic acid, radioimmunoassay), human osteosarcoma 143 cells; assay type: cell-based; conditions: read-out: Whole Cells COX-2 % inhib.; for inhibition at 0.01 µM: 10 nM
T2 construct: human osteosarcoma 143 cells (which specifically express cyclooxygenase-2); endogenous in cells; host or cells: human osteosarcoma 143 cells (whole cells, and microsomes prepared from them)
T2 sequence (P35354 18-604): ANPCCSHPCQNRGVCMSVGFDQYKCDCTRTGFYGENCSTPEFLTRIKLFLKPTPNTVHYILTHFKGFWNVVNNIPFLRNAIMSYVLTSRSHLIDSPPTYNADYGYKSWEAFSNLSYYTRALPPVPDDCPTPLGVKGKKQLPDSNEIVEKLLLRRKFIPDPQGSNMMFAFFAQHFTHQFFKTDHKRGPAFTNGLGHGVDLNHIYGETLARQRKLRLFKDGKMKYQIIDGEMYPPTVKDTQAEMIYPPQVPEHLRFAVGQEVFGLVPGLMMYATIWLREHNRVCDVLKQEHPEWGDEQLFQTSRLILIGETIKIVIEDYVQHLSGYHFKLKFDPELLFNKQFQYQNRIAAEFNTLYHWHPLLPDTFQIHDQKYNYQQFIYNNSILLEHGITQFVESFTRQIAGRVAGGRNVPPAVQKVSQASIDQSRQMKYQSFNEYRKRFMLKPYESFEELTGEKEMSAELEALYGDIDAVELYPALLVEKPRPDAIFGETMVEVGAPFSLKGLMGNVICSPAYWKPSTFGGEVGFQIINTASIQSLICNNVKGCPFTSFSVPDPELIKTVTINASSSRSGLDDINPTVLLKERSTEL
Method: as §1

cyclooxygenase-2 (COX-2) [3] = target: T2, cyclooxygenase-2 (COX-2); test: Microsomal cyclooxygenase assay, COX-2 (PGE2 synthesis, microsomes of human osteosarcoma 143 cells); assay type: biochemical; conditions: read-out: Microsomes COX-2 % inhib.; for inhibition at 0.01 µM: 10 nM; for inhibition at 0.1 µM: 100 nM; for inhibition at 1 µM: 1000 nM
Method: as §1

cyclooxygenase-1 (COX-1) [4] = target: T1, cyclooxygenase-1 (COX-1); test: Whole cell cyclooxygenase assay, COX-1 (PGE2 synthesis in response to arachidonic acid, radioimmunoassay), human U-937 cells; assay type: cell-based; conditions: read-out: Whole Cells COX-1 % inhib.; for inhibition at 0.01 µM: 10 nM
Method: as §1

Row | SMILES | inhibition at 0.01 µM (cyclooxygenase-1 (COX-1) [1]) [%] | inhibition at 0.01 µM (cyclooxygenase-2 (COX-2) [2]) [%] | inhibition at 0.01 µM (cyclooxygenase-2 (COX-2) [3]) [%] | inhibition at 0.1 µM (cyclooxygenase-1 (COX-1) [1]) [%] | inhibition at 0.1 µM (cyclooxygenase-2 (COX-2) [2]; 100 nM) [%] | inhibition at 0.1 µM (cyclooxygenase-2 (COX-2) [3]) [%] | other results
1 | NS(=O)(=O)c1ccc(-c2ccsc2-c2ccc(F)cc2)cc1 [Example 2, 3-(4-(Aminosulfonyl)phenyl)-2-(4-fluorophenyl)thiophene] | 25 | 69 | 49 |  |  |  | inhibition at 0.01 µM (cyclooxygenase-1 (COX-1) [4]): 0%
2 | CS(=O)(=O)c1ccc(-c2cc(C(=O)O)sc2-c2ccc(C(=O)O)cc2)cc1 [Example 5, 5-(4-Carboxyphenyl)-4-(4-(methylsulfonyl)phenyl)thiophene-2-carboxylic acid] | 31 | 0 | 43 |  |  |  | inhibition at 0.01 µM (cyclooxygenase-1 (COX-1) [4]): 0%
3 | NS(=O)(=O)c1ccc(-c2ccsc2C2CCCCC2)cc1 [Example 4, 3-(4-(Aminosulfonyl)phenyl)-2-cyclohexylthiophene] | 2 |  | 47 |  |  |  | 
4 | CC(C)c1cc(-c2ccc(S(N)(=O)=O)cc2)c(-c2ccc(F)cc2)s1 [Example 3, 3-(4-(Aminosulfonyl)phenyl)-2-(4-fluorophenyl)-5-(2-propyl)thiophene] | 19 | 42 | 33 | 12 | 100 | 76 | 
5 | CS(=O)(=O)c1ccc(C2=C(c3ccc(Cl)cc3Cl)C(=O)OC2)cc1 [Example 31, 3-(2,4-Dichlorophenyl)-4-(4-(methylsulfonyl)phenyl)-2-(5H)-furanone] |  |  |  |  |  |  | inhibition at 0.02 µM (cyclooxygenase-2 (COX-2) [2]; 20 nM): 49%; inhibition at 0.16 µM (cyclooxygenase-2 (COX-2) [2]; 160 nM): 87%
6 | CS(=O)(=O)c1ccc(C2=C(c3ccc(F)cc3)C(=O)OC2)cc1 [Example 9, 3-(4-Fluorophenyl)-4-(4-(methylsulfonyl)phenyl)-2-(5H)-furanone] |  |  |  |  |  | 37 | inhibition at 0.1 µM (cyclooxygenase-2 (COX-2) [2]): 83%

Now from value to compound, other results behind:

Row | inhibition at 0.01 µM (cyclooxygenase-1 (COX-1) [1]) [%] | inhibition at 0.01 µM (cyclooxygenase-2 (COX-2) [2]) [%] | inhibition at 0.01 µM (cyclooxygenase-2 (COX-2) [3]) [%] | inhibition at 0.1 µM (cyclooxygenase-1 (COX-1) [1]) [%] | inhibition at 0.1 µM (cyclooxygenase-2 (COX-2) [2]; 100 nM) [%] | inhibition at 0.1 µM (cyclooxygenase-2 (COX-2) [3]) [%] | SMILES | other results
7 |  |  |  | 12 | 95 | 71 | NS(=O)(=O)c1ccc(C2=C(c3ccc(F)cc3)C(=O)OC2)cc1 [Example 10, 3-(4-Fluorophenyl)-4-(4-(aminosulfonyl)phenyl)-2-(2H)-furanone] | 
8 | 29 | 73 | 45 | 0 | 89 | 63 | O=C(NS(=O)(=O)c1ccc(-c2ccsc2-c2ccc(F)cc2)cc1)C(F)(F)F [Example 14, 3-(4-(Trifluoroacetylaminosulfonyl)phenyl)-2-(4-fluorophenyl)thiophene] | inhibition at 1 µM (cyclooxygenase-1 (COX-1) [1]): 0%; inhibition at 1 µM (cyclooxygenase-2 (COX-2) [2]; 1000 nM): 101%; inhibition at 1 µM (cyclooxygenase-2 (COX-2) [3]): 69%
9 |  |  |  | 16 | 78 | 19 | Cc1nc(-c2ccc(F)cc2)c(-c2ccc(S(C)(=O)=O)cc2)s1 [Example 6, 4-(4-Fluorophenyl)-2-methyl-5-(4-(methylsulfonyl)phenyl)thiazole] | 
10 |  |  |  |  | 74 |  | CS(=O)(=O)c1ccc(C2=C(c3ccc(F)cc3)C(=O)CC2)cc1 [Example 7, 2-(4-Fluorophenyl)-3-(4-(methylsulfonyl)phenyl)-2-cyclopenten-1-one] | inhibition at 1 µM (cyclooxygenase-1 (COX-1) [1]): 16%; inhibition at 1 µM (cyclooxygenase-2 (COX-2) [3]): 58%; inhibition at 0.1 µM (cyclooxygenase-1 (COX-1) [4]; 100 nM): 0%
